From paper PMC10728248, “A Novel Near-Infrared Fluorescence Probe THK-565 Enables In Vivo Detection of Amyloid Deposits in Alzheimer’s Disease Mouse Model” (Molecular Imaging and Biology, 2023)

Molecular target: T1, amyloid-β (Aβ1-40) fibrils (Homo sapiens, UniProt P05067)
T1 construct: gene APP; Aβ1-40, aggregated (fibrils)
Experiment: fluorescence saturation binding (ΔF at […] nm, fibrils vs soluble Aβ)

T1 sequence (P05067 672-711): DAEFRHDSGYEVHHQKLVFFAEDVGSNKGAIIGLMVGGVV

Kd: 156 nM
SMILES: Cc1ccc2c(c1)C(C)(C)C1(/C=C/C=C/c3ccc(N(C)C)cc3)NC(=O)CCN21 (stereo not shown) [THK-565, 10a-[(1E,3E)-4-(4-dimethylamino-phenyl)-buta-1,3-dienyl]-8,10,10-trimethyl-3,4,10,10a-tetrahydro-1H-pyrimido[1,2-a]indol-2-one]
